# Measurements as given in ChEMBL document CHEMBL1153656, “Synthesis of homochiral potassium channel openers: role of the benzopyranyl 3-hydroxyl group in cromakalim and pyridine N-oxides in determining the biological activities of enantiomers” (Bioorg Med Chem Lett, 1992).
# Organism: Rattus norvegicus
# Assay: The concentration of test substance producing half maximal reduction of the contraction evoked by 20 mM KCI in rat hepatic portal veins.
# Format: functional
# Settings: not given
row,IC50 [nM],SMILES
1,74,"CC1(C)Oc2ccc(C#N)cc2[C@H](N2CCCC2=O)[C@H]1O (single isomer, unassigned) [(-)-CROMAKALIM]"
2,6600,CC1(C)Oc2ccc(C#N)cc2[C@H](N2CCCC2=O)[C@H]1O [(-)-CROMAKALIM]

# Same assay, conditions: Rattus norvegicus
row,IC50 [nM],SMILES
1,75,CC1(C)C[C@@H](c2cccc[n+]2[O-])c2cc(C#N)ccc2O1
2,1200,CC1(C)Oc2ccc(C#N)cc2[C@H](c2cccc[n+]2[O-])[C@H]1O
3,210,CC1(C)C[C@H](c2cccc[n+]2[O-])c2cc(C#N)ccc2O1
4,100,CC1(C)Oc2ccc(C#N)cc2[C@@H](c2cccc[n+]2[O-])[C@@H]1O

# More lines, now with the values behind:
row,SMILES,IC50 [nM]
1,CC1(C)C[C@@H](N2CCCC2=O)c2cc(C#N)ccc2O1,520
2,CC1(C)C[C@H](N2CCCC2=O)c2cc(C#N)ccc2O1,1150
